Data: ChEMBL document CHEMBL6153032, “Discovery of a highly potent, N-terminal domain-targeting degrader of AR-FL/AR-V7 for the treatment of prostate cancer” (Eur J Med Chem, 2025)
pIC50: −log10 of the molar value. Active and inactive are the calls of the source. No cut-off for these calls is given here.

What was measured:
[1] = biological target: T1, Protein cereblon/Androgen receptor (Homo sapiens, UniProt P10275+Q96SW2); test: PROTAC activity at full length Androgen receptor/CRBN in human 22Rv1 cells assessed as induction of full length Androgen receptor degradation at 5 uM incubated for 24 hrs by Western blot analysis relative to control; format: cell-based
T1 sequence (Q96SW2 whole entry, looked up, one chain of several): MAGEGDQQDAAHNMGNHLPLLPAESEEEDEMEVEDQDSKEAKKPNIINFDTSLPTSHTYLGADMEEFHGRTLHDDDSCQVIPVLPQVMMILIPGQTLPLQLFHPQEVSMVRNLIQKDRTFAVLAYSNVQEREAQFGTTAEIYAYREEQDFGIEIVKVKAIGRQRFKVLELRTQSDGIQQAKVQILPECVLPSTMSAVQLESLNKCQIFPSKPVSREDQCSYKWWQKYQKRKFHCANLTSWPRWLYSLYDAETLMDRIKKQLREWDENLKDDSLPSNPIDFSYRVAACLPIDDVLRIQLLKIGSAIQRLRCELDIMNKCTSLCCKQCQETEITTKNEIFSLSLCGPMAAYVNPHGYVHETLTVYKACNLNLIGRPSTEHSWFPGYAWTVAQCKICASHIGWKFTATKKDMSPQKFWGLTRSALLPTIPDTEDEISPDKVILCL

[2] = tested on: CWR22R; test: Antiproliferative activity against human 22Rv1 cells incubated for 4 days by CCK-8 assay; format: functional, cell-based; settings: 22Rv1, 96 h
[3] = tested on: Protein cereblon/Androgen receptor (Homo sapiens), P10275+Q96SW2 [UNDEFINED MUTATION]; test: PROTAC activity at AR-V7/CRBN in human 22Rv1 cells assessed as induction of AR-V7 degradation at 1 uM incubated for 24 hrs by Western blot analysis relative to control; format: cell-based; settings: CWR22R
Chain of Protein cereblon/Androgen receptor (Homo sapiens), P10275+Q96SW2 [UNDEFINED MUTATION] (Q96SW2 whole entry, looked up, change not shown, one chain of several): as the sequence (Q96SW2 whole entry, looked up, one chain of several) above

[4] = tested on: Protein cereblon/Androgen receptor (Homo sapiens), P10275+Q96SW2 [UNDEFINED MUTATION]; test: PROTAC activity at AR-V7/CRBN in human 22Rv1 cells assessed as induction of AR-V7 degradation at 5 uM incubated for 24 hrs by Western blot analysis relative to control; format: cell-based; settings: CWR22R
[5] = biological target: T1, Protein cereblon/Androgen receptor; test: PROTAC activity at full length Androgen receptor/CRBN in human 22Rv1 cells assessed as induction of full length Androgen receptor degradation at 1 uM incubated for 24 hrs by Western blot analysis relative to control; format: cell-based
[6] = tested on: Androgen receptor (Homo sapiens), P10275 [UNDEFINED MUTATION]; test: Binding affinity to AR-V7 in human 22Rv1 cells assessed as thermal stabilization at 10 uM incubated for 24 hrs by CETSA analysis; format: cell-based
[7] = tested on: Androgen receptor (Homo sapiens), P10275 [UNDEFINED MUTATION]; test: Binding affinity to AR-V7 in human 22Rv1 cells at 10 uM incubated for 24 hrs by SPR analysis; format: cell-based
[8] = biological target: T2, Androgen receptor (Homo sapiens) (UniProt P10275); test: Binding affinity to Androgen receptor in human 22Rv1 cells at 10 uM incubated for 24 hrs by SPR analysis; format: cell-based
T2 sequence (whole entry): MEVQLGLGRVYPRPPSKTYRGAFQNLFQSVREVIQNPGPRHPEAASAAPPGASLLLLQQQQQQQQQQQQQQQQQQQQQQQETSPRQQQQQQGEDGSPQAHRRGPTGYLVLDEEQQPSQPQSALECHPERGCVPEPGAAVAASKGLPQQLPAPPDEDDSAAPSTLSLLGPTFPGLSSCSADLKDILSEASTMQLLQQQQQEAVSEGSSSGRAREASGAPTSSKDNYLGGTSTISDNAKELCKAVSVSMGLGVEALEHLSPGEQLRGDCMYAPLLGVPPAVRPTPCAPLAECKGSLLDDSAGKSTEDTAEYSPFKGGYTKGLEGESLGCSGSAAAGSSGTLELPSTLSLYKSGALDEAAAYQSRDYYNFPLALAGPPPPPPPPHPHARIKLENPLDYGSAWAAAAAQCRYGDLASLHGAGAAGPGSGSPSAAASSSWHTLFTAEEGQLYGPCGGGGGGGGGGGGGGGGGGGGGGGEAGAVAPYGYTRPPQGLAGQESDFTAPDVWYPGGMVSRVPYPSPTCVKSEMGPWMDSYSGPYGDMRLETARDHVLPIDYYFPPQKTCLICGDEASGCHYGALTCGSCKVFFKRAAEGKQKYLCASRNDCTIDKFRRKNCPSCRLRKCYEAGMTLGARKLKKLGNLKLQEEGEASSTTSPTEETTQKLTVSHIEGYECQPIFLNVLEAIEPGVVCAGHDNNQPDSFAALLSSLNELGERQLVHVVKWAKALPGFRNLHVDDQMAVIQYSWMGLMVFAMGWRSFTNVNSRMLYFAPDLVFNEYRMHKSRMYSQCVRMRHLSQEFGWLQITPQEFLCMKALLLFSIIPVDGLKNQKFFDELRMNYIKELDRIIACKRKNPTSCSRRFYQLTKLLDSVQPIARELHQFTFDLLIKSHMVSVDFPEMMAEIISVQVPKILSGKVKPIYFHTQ

[9] = biological target: T2, Androgen receptor (Homo sapiens); test: Binding affinity to Androgen receptor in human 22Rv1 cells assessed as thermal stabilization at 10 uM incubated for 24 hrs by CETSA analysis; format: cell-based
[10] = tested on: CWR22R; test: Induction of apoptosis in human 22Rv1 cells assessed as early apoptotic cells at 100 nM incubated for 48 hrs by Annexin V/FITC staining based flow cytometry analysis (reference value: 2.08 %); format: functional
[11] = tested on: CWR22R; test: Induction of apoptosis in human 22Rv1 cells assessed as viable cells at 100 nM incubated for 48 hrs by Annexin V/FITC staining based flow cytometry analysis (reference value: 94.49%); format: functional; settings: read-out: Activity
[12] = tested on: CWR22R; test: Induction of cell cycle arrest in human 22Rv1 cells assessed as accumulation of cells at G0/G1 phase at 100 nM incubated for 24 hrs by PI staining based flow cytometry analysis (reference value: 62.66%); format: functional
[13] = tested on: CWR22R; test: Inhibition of colony formation in human 22Rv1 cells assessed as reduction in colony formation incubated for 14 days; format: functional, cell-based; settings: dose 1-100 nM, time 14.0 day
[14] = tested on: CWR22R; test: Induction of cell cycle arrest in human 22Rv1 cells assessed as accumulation of cells at G2/M phase at 100 nM incubated for 24 hrs by PI staining based flow cytometry analysis (reference value: 8.61%); format: functional
[15] = tested on: CWR22R; test: Induction of cell cycle arrest in human 22Rv1 cells assessed as accumulation of cells at S phase at 100 nM incubated for 24 hrs by PI staining based flow cytometry analysis (reference value: 28.73%); format: functional
[16] = tested on: CWR22R; test: Induction of apoptosis in human 22Rv1 cells assessed as late apoptotic cells at 100 nM incubated for 48 hrs by Annexin V/FITC staining based flow cytometry analysis (reference value: 1.12 %); format: functional
[17] = tested on: CWR22R; test: Induction of apoptosis in human 22Rv1 cells assessed as necrotic cells at 100 nM incubated for 48 hrs by Annexin V/FITC staining based flow cytometry analysis (reference value: 2.31 %); format: functional

Structure (SMILES) | Activity [1] | pIC50 [2] | Activity [3] | Activity [4] | Activity [5] | other results
CC(C)(c1ccc(OCC(=O)NCCCCCCNc2ccc3c(c2)C(=O)N(C2CCC(=O)NC2=O)C3=O)cc1)c1ccc(OCC(O)CCl)cc1 (configuration not stated) | 72.1% | 4.94 | 32.2% | < 10% | 84.1% | –
CC(C)(c1ccc(OCC(=O)NCCNc2ccc3c(c2)C(=O)N(C2CCC(=O)NC2=O)C3=O)cc1)c1ccc(OCC(O)CCl)cc1 (configuration not stated) | < 10% | < 4.70 | < 10% | < 10% | < 10% | –
CC(C)(c1ccc(O)cc1)c1ccc(OCc2cccc(N3CCOCC3)n2)cc1 | – | – | – | – | – | Activity [6]: inactive; Activity [7]: Active; Activity [8]: Active; Activity [9]: inactive
CC(C)(c1ccc(OCC(=O)N2CCC(CNc3ccc4c(c3)C(=O)N(C3CCC(=O)NC3=O)C4=O)CC2)cc1)c1ccc(OCC(O)CCl)cc1 (configuration not stated) | 69.6% | 4.82 | < 10% | 79.9% | < 10% | –
CC(C)(c1ccc(OCC(=O)NCCCNc2ccc3c(c2)C(=O)N(C2CCC(=O)NC2=O)C3=O)cc1)c1ccc(OCC(O)CCl)cc1 (configuration not stated) | < 10% | < 4.70 | < 10% | < 10% | < 10% | –
CC(C)(c1ccc(OCC(=O)NC2CCN(c3cccc4c3C(=O)N(C3CCC(=O)NC3=O)C4=O)CC2)cc1)c1ccc(OCc2cccc(N3CCOCC3)n2)cc1 (configuration not stated) | 28.3% | < 4.70 | < 10% | 48.7% | < 10% | –
CC(C)(c1ccc(OCCCCNc2cccc3c2C(=O)N(C2CCC(=O)NC2=O)C3=O)cc1)c1ccc(OCC(O)CCl)cc1 (configuration not stated) | 31.3% | 5.04 | 78.1% | 89.3% | < 10% | –
CC(C)(c1ccc(OCCCCCCNc2ccc3c(c2)C(=O)N(C2CCC(=O)NC2=O)C3=O)cc1)c1ccc(OCC(O)CCl)cc1 (configuration not stated) | < 10% | 5.66 | 74.7% | 21.2% | 90% | –
CC(C)(c1ccc(OCC(=O)NCCCNc2cccc3c2C(=O)N(C2CCC(=O)NC2=O)C3=O)cc1)c1ccc(OCc2cccc(N3CCOCC3)n2)cc1 (configuration not stated) | 78.6% | 5.13 | < 10% | 55.5% | 22.1% | –
CC(C)(c1ccc(OCC(=O)NCCCNc2cccc3c2C(=O)N(C2CCC(=O)NC2=O)C3=O)cc1)c1ccc(OCC(O)CCl)cc1 (configuration not stated) | 91.1% | 5.95 | 80.1% | 93.6% | 88.1% | –
CC(C)(c1ccc(OC[C@H](O)CO)cc1)c1ccc(OC[C@H](O)CCl)cc1 | < 10% | < 4.70 | < 10% | < 10% | < 10% | Activity [10]: 13.9%; viability at 0.1 µM [11]: 80.7%; Activity [12]: 50.06%; inhibition [13]: Weak_effect; Activity [14]: 11.07%; Activity [15]: 38.87%; Activity [16]: 4.6%; Activity [17]: 0.78%
CC(C)(c1ccc(OCc2cccc(N3CCOCC3)n2)cc1)c1ccc(OCC2CCN(c3cccc4c3C(=O)N(C3CCC(=O)NC3=O)C4=O)CC2)cc1 (configuration not stated) | < 10% | < 4.70 | < 10% | < 10% | < 10% | –
CC(C)(c1ccc(OCCCCCCNc2cccc3c2C(=O)N(C2CCC(=O)NC2=O)C3=O)cc1)c1ccc(OCC(O)CCl)cc1 (configuration not stated) | < 10% | 5.19 | 79.5% | 93% | 16.7% | –
CC(C)(c1ccc(OCC(=O)N2CCC(N3CCN(c4ccc5c(c4)C(=O)N(C4CCC(=O)NC4=O)C5=O)CC3)CC2)cc1)c1ccc(OCC(O)CCl)cc1 (configuration not stated) | < 10% | < 4.70 | 33.2% | < 10% | < 10% | –
CC(C)(c1ccc(OCC(=O)NC2CCN(c3ccc4c(c3)C(=O)N(C3CCC(=O)NC3=O)C4=O)CC2)cc1)c1ccc(OCC(O)CCl)cc1 (configuration not stated) | 45.2% | 5.44 | 68.8% | 71.4% | 75.2% | –
CC(C)(c1ccc(OCC(=O)NCCN2CCN(c3cccc4c3C(=O)N(C3CCC(=O)NC3=O)C4=O)CC2)cc1)c1ccc(OCc2cccc(N3CCOCC3)n2)cc1 (configuration not stated) | < 10% | < 4.70 | < 10% | < 10% | < 10% | –
CC(C)(c1ccc(OCC(=O)NC2CN(c3cccc4c3C(=O)N(C3CCC(=O)NC3=O)C4=O)C2)cc1)c1ccc(OCC(O)CCl)cc1 (configuration not stated) | 89% | 5.93 | 67.7% | 88.2% | 80.1% | –
CC(C)(c1ccc(OCC(=O)NCCCCCNc2ccc3c(c2)C(=O)N(C2CCC(=O)NC2=O)C3=O)cc1)c1ccc(OCC(O)CCl)cc1 (configuration not stated) | < 10% | < 4.70 | < 10% | < 10% | < 10% | –
CC(C)(c1ccc(OCC(=O)NCCOCCOCCOCCNc2cccc3c2C(=O)N(C2CCC(=O)NC2=O)C3=O)cc1)c1ccc(OCc2cccc(N3CCOCC3)n2)cc1 (configuration not stated) | 83.5% | 4.95 | < 10% | 40% | 42.5% | –
CC(C)(c1ccc(OCCCCNc2ccc3c(c2)C(=O)N(C2CCC(=O)NC2=O)C3=O)cc1)c1ccc(OCC(O)CCl)cc1 (configuration not stated) | 81.1% | 5.51 | 55.1% | 23.6% | 88.1% | –
CC(C)(c1ccc(OCC(=O)NCCCCNc2ccc3c(c2)C(=O)N(C2CCC(=O)NC2=O)C3=O)cc1)c1ccc(OCC(O)CCl)cc1 (configuration not stated) | < 10% | < 4.70 | < 10% | < 10% | < 10% | –
CC(C)(c1ccc(OCCCNc2cccc3c2C(=O)N(C2CCC(=O)NC2=O)C3=O)cc1)c1ccc(OCC(O)CCl)cc1 (configuration not stated) | 58.3% | 5.01 | 58.7% | 83.1% | 52.1% | –
CC(C)(c1ccc(OCCNc2cccc3c2C(=O)N(C2CCC(=O)NC2=O)C3=O)cc1)c1ccc(OCC(O)CCl)cc1 (configuration not stated) | < 10% | 5.11 | 87.2% | 87% | 82.5% | –
CC(C)(c1ccc(OCC(=O)NC2CN(c3ccc4c(c3)C(=O)N(C3CCC(=O)NC3=O)C4=O)C2)cc1)c1ccc(OCC(O)CCl)cc1 (configuration not stated) | 22.3% | < 4.70 | 62.1% | 69.8% | < 10% | –
